In ChEMBL document CHEMBL4819024, “Synthesis and evaluation of andrographolide derivatives as potent anti-osteoporosis agents in vitro and in vivo” (Eur J Med Chem, 2021):
The source made the active and inactive calls.

Experiments:
[1] = Toxicity in OVX-induced bone loss C57BL/6 mouse model assessed as effect on serum CHO level at 10 mg/kg, po QD for 4 weeks; format: organism-based; conditions: in vivo, 672 h, dose 10 mg/kg/day
Mus musculus [2] = assay: Antiosteoporotic activity against OVX-induced bone loss C57BL/6 mouse model assessed as decrease in osteocalcin secretion in serum at 10 mg/kg, po QD for 4 weeks; format: functional, organism-based; conditions: dose 10.0 mg/kg/day
[3] = Toxicity in OVX-induced bone loss C57BL/6 mouse model assessed as effect on thymus morphology at 10 mg/kg, po QD for 4 weeks; format: organism-based; conditions: in vivo, 672 h, dose 10 mg/kg/day
BMMC [4] = assay: Anti-osteoporosis activity in C57BL/6 mouse BMM cells assessed as inhibition of M-CSF/RANKL-induced bone resorption by measuring suppression of reabsorbing pits formation after 48 hrs by hydroxyapatite assay using Leica inverted microscope; format: functional, cell-based; conditions: dose 1-10 µM
C3H 10T1/2 = assay: Induction of osteoblast differentiation in mouse C3H10T1/2 cells assessed as increase in calcium nodule formation at 1 to 10 uM measured after 14 days by alizarin red staining assay; format: functional, cell-based; conditions: dose 1-10 µM, time 14.0 day
BMMC [5] = assay: Downregulation of osteoclastogenesis-associated gene expression in C57BL/6 mouse BMM cells assessed as inhibition of M-CSF/RANKL-induced MMP9 expression at 5 uM after 5 days by qRT-PCR analysis; format: functional, cell-based; conditions: time 5.0 day
BMMC [6] = assay: Downregulation of osteoclastogenesis-associated gene expression in C57BL/6 mouse BMM cells assessed as inhibition of M-CSF/RANKL-induced TRAcP expression at 5 uM after 5 days by qRT-PCR analysis; format: functional, cell-based; conditions: time 5.0 day
Mus musculus [7] = assay: Antiosteoporotic activity against OVX-induced bone loss C57BL/6 mouse model assessed as restoration of E2 level in serum at 10 mg/kg, po QD for 4 weeks; format: functional, organism-based; conditions: dose 10.0 mg/kg/day
Mus musculus [8] = assay: Antiosteoporotic activity against OVX-induced bone loss C57BL/6 mouse model assessed as increase in bone volume/total bone volume in femoral metaphysis at 10 mg/kg, po QD for 4 weeks; format: functional, organism-based; conditions: dose 10.0 mg/kg/day
[9] = Toxicity in OVX-induced bone loss C57BL/6 mouse model assessed as effect on serum ALP level at 10 mg/kg, po QD for 4 weeks; format: organism-based; conditions: in vivo, 672 h, dose 10 mg/kg/day
[10] = Toxicity in OVX-induced bone loss C57BL/6 mouse model assessed as effect on liver morphology at 10 mg/kg, po QD for 4 weeks; format: organism-based; conditions: in vivo, 672 h, dose 10 mg/kg/day
BMMC [11] = assay: Anti-osteoporosis activity in C57BL/6 mouse BMM cells assessed as inhibition of M-CSF/RANKL-induced osteoclastogenesis by measuring reduction in multinucleated TRAP+ cells incubated for 5 days with media replenishment for every 48 hrs measured by TRAP-staining based analysis; format: functional, cell-based; conditions: C57BL/6, BMMC

C=C1CC[C@@H]2[C@](C)(CNCc3ccc(F)cc3)[C@H](O)CC[C@@]2(C)[C@@H]1/C=C/C1=CCOC1=O
inactive: Activity (C3H 10T1/2)
active: Activity (Mus musculus [2]) | Activity (BMMC [4]) Dose-Dependent Effect | inhibition (BMMC [5]) | inhibition (BMMC [6]) | Activity (Mus musculus [7]) | Activity (Mus musculus [8])
Non-Toxic: Activity [1] | Activity [3] | Activity [9] | Activity [10]
350 nM: IC50 (BMMC [11])
